The subject of one data set is hEPO mRNA. Briefly: hEPO expression and pharmacokinetic parameters in non-human primates. Format: in vivo, Cynomolgus monkeys. The following applies: hEPO, 0.01 mpk i.v. infusion, non-human primates. The method, then:
The tolerability and efficacy of nanoparticle compositions to non-human primates was also investigated using a sample formulation including Compound 18. The formulation was prepared according to the standard MC3 formulation described above and included an hEPO mRNA. Primates were administered a single dose of 0.05 (Group 1), 0.3 (Group 2), or 1.0 (Group 3) mpk via intravenous infusion for 60 minutes. Three primates were administered each dose. Expression of hEPO was measured prior to dosing and at 2, 6, 24, 48, and 96 hours post-treatment (Table 26). Table 28 includes levels of indicators of complement activation, while Table 29 includes cytokine induction data.
The tolerability and efficacy of nanoparticle compositions to non-human primates was also investigated using sample formulations including Compounds 18, 25, 26, and 48 and MC3 to determine if these compounds are differentiated in terms of protein expression. The formulations were prepared according to the standard MC3 formulation described above and included an hEPO mRNA. Table 30 includes details of the compositions tested, while Table 31 summarizes the relative expression of Luc and hEPO mRNA in mice and rats. Expression was measured 6 hours after administration.
As is evident in the figure, expression was highest 6 hours post administration for all formulations tested, and was highest for those formulations including Compound 18.
NHP studies: Nonhuman primate studies were conducted using naïve cynomolgus monkeys (cynos), 2-4 years old, weighing 2-6 kg. No treatment randomization or blinding methods were used for any of the animal studies. Sample sizes were determined by the resource equation method. For injection, mRNA-LNPs in phosphate buffered saline (PBS) were administered by 60-minute intravenous infusion using a temporary indwelling catheter inserted in a peripheral vein.
hEPO ELISA for NHP samples: Human Epo levels were measured using a human erythropoietin immunoassay. Cytokines levels were measured using a non-human primate cytokine kit. […]
Turning to `CCCCCCCCCCCOC(=O)CCCCCN(CCO)CCCCCCCC(=O)OC(CCCCCCCC)CCCCCCCC` [Compound 25, Heptadecan-9-yl 8-((2-hydroxyethyl)(6-oxo-6-(undecyloxy)hexyl)amino)octanoate], the “AUC Lipid/MC3 Ratio” value came to 3.3.
The same measure, in the same setting: the figure for `CCCCCCCCCOC(=O)CCCN(CCO)CCCCCCCC(=O)OC(CCCCCCCC)CCCCCCCC` [Compound 26, Heptadecan-9-yl 8-((2-hydroxyethyl)(4-(nonyloxy)-4-oxobutyl)amino) octanoate] is 1.3; for `CCCCCCCCC(C)OC(=O)CCCCCCCN(CCO)CCCCCCCC(=O)OC(CCCCCCCC)CCCCCCCC` (centres unmarked) [Compound 48, decan-2-yl 8-((8-(heptadecan-9-yloxy)-8-oxooctyl)(2-hydroxyethyl)amino)octanoate] it is 0.9.

Tested on in another data set: not listed separately
In words: Clinical chemistry and hematology in rat, 2 mpk i.v., 48 h. The data set is classed as in vivo. The following applies: intravenous, 48 h post dose. The method, then: Sample formulations of nanoparticle compositions including different lipids were administered intravenously to rat at a dose of 2 mpk. The expression of various clinical markers was evaluated at 48 h post dose and compared to that induced by administration of MC3 formulations or phosphate buffered saline (PBS).
Regarding `CCCCCCCCCN(CCO)CCCCCCCC(=O)OC(CCCCCCCC)CCCCCCCC` [Compound 3, Heptadecan-9-yl 8-((2-hydroxyethyl)(nonyl)amino)octanoate], the “Concentration Alanine aminotransferase” value stood at 53.5, the “Concentration Aspartate aminotransferase” value worked out at 87.5, the “Concentration Lymphocytes” value is recorded as 12051 and the “Concentration Monocytes” value was found to be 2103. Besides, the “Concentration Neutrophils” value worked out at 3388.5.
The corresponding values for `CCCCCC/C=C\COC(=O)CCCCCCCN(CCO)CCCCCCCC(=O)OC(CCCCCCCC)CCCCCCCC` [Compound 24, Heptadecan-9-yl (Z)-8_((2-hydroxyethyl) (8-(non-2-en-1-yloxy)-8-oxooctyl)amino)octanoate] are 51.5, 90, 14100, 1834 and 1790.5.
The corresponding values for `CCCCCCCCCCCOC(=O)CCCCCN(CCO)CCCCCCCC(=O)OC(CCCCCCCC)CCCCCCCC` [Compound 25, Heptadecan-9-yl 8-((2-hydroxyethyl)(6-oxo-6-(undecyloxy)hexyl)amino)octanoate] are 52, 124.5, 15924, 2122 and 1998.
The corresponding values for `CCCCCCCCCOC(=O)CCCCCCCN(CCO)CCCCCCCOC(=O)C(CCCCCCCC)CCCCCCCC` [Compound 30, 7-((2-Hydroxyethyl)(8-(nonyloxy)-8-oxooctyl)amino)heptyl 2-octyldecanoate] are 56, 95, 10408.5, 877 and 3195.

Values taken from US12263248B2, “Compounds and compositions for intracellular delivery of therapeutic agents” (ModernaTX, Inc., priority 2018, dated 2025).
